From patent publication US6660741B2, “Asymmetric synthesis of (S,S,R)-(-)-actinonin and its analogs and uses therefor” (Sloan-Kettering Institute for Cancer Research, priority 2001, dated 2003)
Read-outs that look alike come from different tables or passages of the source.

Key:
Type in all cases: cell-based
[1] = system: Daudi (B lineage Burkitt's lymphoma, CD13 negative) cells; assay: Inhibition of tritiated thymidine incorporation, 5 day, Daudi; conditions: 5 days
Description: (§1) Actinonin was purchased from Sigma (St. Louis, Mo.). Biotinylated-Actinonin and all analogs were synthesized. Actinonin stock solution was 5 mg/ml in 10% ethanol. Biotinylated-actinonin and all other analogs were diluted in 10% DMSO to give stock solutions in the range of 1-20 mg/ml.
(§2) Daudi (B lineage Burkitt's lymphoma, CD13 negative) and HL60 (acute myeloid leukemia, CD13 positive) cells were maintained in culture using RPMI 1640 supplemented with 10% heat-inactivated FBS (Omega Scientific, Inc., Tarzana, Calif.) and 1% L-glutamine (Gibco/Invitrogen, Carlsbad, Calif.) at 37° C. in a humidified atmosphere of 5% CO2. Cell viability was higher than 90%, and cells were free of mycoplasma contamination.
(§3) An aliquot of 200 ul of cells (10,000 cells/well) was washed and incubated at 37° C. in 96-well plates in the presence or absence of actinonin/analogs. Serial dilutions were made in complete media. After 5 days of incubation, 50 ul of 10 uCi/mL tritiated thymidine (PerkinElmer, Boston, Mass.) was added to each well and allowed to incorporate for 5 hours. Plates were frozen at −80° C. overnight and cells were harvested onto filtermats (Wallac, Finland) using a semi-automatic harvester (Skatron, Sterling, Va.). Filtermats were counted in a 1205 Betaplate™ liquid scintillation counter (Wallac, Finland). The reference numbers refer to those analogs disclosed in Example 6. Compounds 35, 42, 48, 52, 53, and 56 are effective at inhibiting cell growth.

[2] = system: HL60 (acute myeloid leukemia, CD13 positive) cells; assay: Inhibition of tritiated thymidine incorporation, 5 day, HL60; conditions: HL60, 5 days
Description: as §1, §2, §3

[3] = system: Daudi and HL60 cells; assay: Thymidine incorporation, summary statement on cell growth (Daudi and HL60); conditions: summary of Tables 4 and 5
Description: as §1, §2, §3

[4] = Homo sapiens, 120 h, read-out: Daudi IC50 (uM), 5 day thymidine incorporation
[5] = Homo sapiens, 120 h, read-out: Daudi IC50 (ug/mL), 5 day thymidine incorporation
[6] = Homo sapiens, HL-60, 120 h, read-out: HL60 IC50 (uM), 5 day thymidine incorporation
[7] = Homo sapiens, HL-60, 120 h, read-out: HL60 IC50 (ug/mL), 5 day thymidine incorporation

Compound	IC50 [1, 4]	IC50 [1, 5]	IC50 [2, 6]	IC50 [2, 7]	also measured
O=C(O)CNC(=O)C(CS)Cc1ccccc1 (racemic) [DL-Thiorphan, reference compound]					Daudi IC50 (ug/mL), 5 day thymidine incorporation [1]: >100 µg/mL; IC50 ([1]; read-out: Daudi IC50 (uM), 5 day thymidine incorporation): > 395 µM; HL60 IC50 (ug/mL), 5 day thymidine incorporation [2]: >100 µg/mL; IC50 ([2]; read-out: HL60 IC50 (uM), 5 day thymidine incorporation): > 395 µM
CCCCC[C@H](CC(N)=O)C(=O)N[C@H](C(=O)N1CCC[C@H]1C)C(C)C (stereo in doubt) [Compound 51, N1-(1-(2-methyl-pyrrolidine-1-carbonyl)-2-methyl-propyl)-2-pentyl-succinamide]	18.7 µM	6.6 µg/mL	19.5 µM	6.9 µg/mL	
CCCC[C@@H](C=O)NC(=O)[C@H](CC(C)C)NC(=O)OCc1ccccc1 [Calpeptin, reference compound]	16.6 µM	6 µg/mL	138 µM	50 µg/mL	
CCCCC[C@H](CC(=O)NO)C(=O)N[C@@H](CC(C)C)C(=O)N1CCC[C@H]1CO [Compound 35, N4-hydroxy-N1-(1-(2-hydroxymethyl-pyrrolidine-1-carbonyl)-3-methyl-butyl)-2-pentyl-succinamide]	14.1 µM	5.7 µg/mL	17.7 µM	7.1 µg/mL	inhibiting cell growth [3]: effective
CCCCC[C@H](CC(N)=O)C(=O)N[C@@H](CC(C)C)C(=O)N1CCC[C@H]1CO [Compound 49, N1-(1-(2-hydroxymethyl-pyrrolidine-1-carbonyl)-3-methyl-butyl)-2-pentyl-succinamide]	> 130 µM	> 50 µg/mL	> 130 µM	> 50 µg/mL	
CCCCC[C@H](CC(=O)O)C(=O)N[C@@H](Cc1ccccc1)C(=O)N1CCC[C@H]1CO [Compound 54, 3-[1-(2-hydroxymethyl-pyrrolidin-1-yl)-2-benzylcarbamoyl]-octanoic acid]			> 239 µM	> 100 µg/mL	
CCCCC[C@H](CC(=O)NO)C(=O)N[C@H](C(=O)N1CCC[C@H]1C(=O)OC)C(C)C [Compound 55]	0.97 µM	0.402 µg/mL	6.7 µM	2.77 µg/mL	
CCCCC[C@H](CC(=O)N(CC)CC)C(=O)N[C@@H](Cc1ccccc1)C(=O)N1CCC[C@H]1CO [Compound 57]			> 211 µM	> 100 µg/mL	
CCCCC[C@H](CC(=O)NCC)C(=O)N[C@@H](Cc1ccccc1)C(=O)N1CCC[C@H]1CO [Compound 58]			> 225 µM	> 100 µg/mL	
CCCCC[C@H](CC(=O)NCc1ccc(OC)cc1OC)C(=O)N[C@@H](Cc1ccccc1)C(=O)N1CCC[C@H]1CO [Compound 59]			> 176 µM	> 100 µg/mL	
CCCCC[C@H](CC(=O)NN(C)C)C(=O)N[C@@H](Cc1ccccc1)C(=O)N1CCC[C@H]1CO [Compound 60, 2-(N′,N′-dimethyl-hydrazinocarbonylmethyl)-heptanoic acid [1-benzyl-2-(2-hydroxymethyl-pyrrolidin-1-yl)-2-oxo-ethyl]-amide]			196 µM	90 µg/mL	
CCCCC[C@H](CC(=O)NCc1ccc([N+](=O)[O-])cc1)C(=O)N[C@@H](Cc1ccccc1)C(=O)N1CCC[C@H]1CO [Compound 61]			> 181 µM	> 100 µg/mL	
CCCCC[C@H](CC(=O)N1CCN(C)CC1)C(=O)N[C@@H](Cc1ccccc1)C(=O)N1CCC[C@H]1CO [Compound 62, 2-[2-(4-methyl-piperazin-1-yl)-2-oxo-ethyl]-heptanoic acid [1-benzyl-2-(2-hydroxymethyl-pyrrolidin-1-yl)-2-oxo-ethyl]-amide]			> 200 µM	> 100 µg/mL	
CCCCC[C@H](CC(=O)NOC)C(=O)N[C@@H](Cc1ccccc1)C(=O)N1CCC[C@H]1CO [Compound 63]			> 224 µM	> 100 µg/mL	
CCCCC[C@H](CC(=O)N1CCCCC1)C(=O)N[C@@H](Cc1ccccc1)C(=O)N1CCC[C@H]1CO [Compound 64]			> 206 µM	> 100 µg/mL	
CCCCC[C@H](CC(=O)N(C)OC)C(=O)N[C@@H](Cc1ccccc1)C(=O)N1CCC[C@H]1CO [Compound 65]			> 217 µM	> 100 µg/mL	
